Assay results as given in ChEMBL document CHEMBL3885881, “DrugMatrix”.

Organism: Rattus norvegicus
Experiment: DrugMatrix - Regimen: Daily Repeat
Type: toxicity, organism-based, Sprague-Dawley
Design: regimen Daily Repeat, gender Male, age 6-8 weeks
Conditions: in vivo, po, route oral GAVAGE, […]; for ABSOLUTE BASOPHIL / ABSOLUTE EOSINOPHIL / ABSOLUTE LYMPHOCYTE / ABSOLUTE MONOCYTE / ABSOLUTE SEGMENTED NEUTROPHIL / BASOPHIL / EOSINOPHIL / ERYTHROCYTE COUNT / HEMATOCRIT / HEMOGLOBIN / LEUKOCYTE COUNT / LYMPHOCYTE / MEAN CORPUSCULAR HEMOGLOBIN / MEAN CORPUSCULAR HEMOGLOBIN CONCENTRATION / MEAN CORPUSCULAR VOLUME / MONOCYTE / NEUTROPHIL / NUCLEATED RED BLOOD CELLS / PLATELET COUNT: tissue Blood; for ALANINE AMINOTRANSFERASE / ALBUMIN / ALKALINE PHOSPHATASE / ASPARTATE AMINOTRANSFERASE / BLOOD UREA NITROGEN / CARBON DIOXIDE / CHLORIDE / CHOLESTEROL / CREATINE PHOSPHOKINASE / CREATININE / GLUCOSE / LACTATE DEHYDROGENASE / LIPASE / PHOSPHORUS / POTASSIUM / SODIUM / TOTAL BILIRUBIN / TOTAL PROTEIN / URIC ACID: tissue Plasma
[1] = 0 mg/kg, 72 h, dose level Control, time 3 day
[2] = 0 mg/kg, 120 h, dose level Control, time 5 day
[3] = 5 mg/kg, 72 h, dose level Low, time 3 day

O=c1oc2ccccc2c(O)c1Cc1c(O)c2ccccc2oc1=O [DICUMAROL]
ABSOLUTE BASOPHIL [1]: 0 CELLS/uL | ABSOLUTE EOSINOPHIL [1]: 0 CELLS/uL | ABSOLUTE LYMPHOCYTE [1]: 9244.83 CELLS/uL | ABSOLUTE MONOCYTE [1]: 102 CELLS/uL | ABSOLUTE SEGMENTED NEUTROPHIL [1]: 869.83 CELLS/uL | BASOPHIL [1]: 0% | EOSINOPHIL [1]: 0% | ERYTHROCYTE COUNT [1]: 5.43 x10E6/uL | HEMATOCRIT [1]: 34.03% | HEMOGLOBIN [1]: 13.27 G/DL | LEUKOCYTE COUNT [1]: 10.22 x10E3/uL | LYMPHOCYTE [1]: 90.33% | MEAN CORPUSCULAR HEMOGLOBIN [1]: 24.48 pg | MEAN CORPUSCULAR HEMOGLOBIN CONCENTRATION [1]: 39.03 G/DL | MEAN CORPUSCULAR VOLUME [1]: 62.75 fL | MONOCYTE [1]: 1% | NEUTROPHIL [1]: 8.67% | NUCLEATED RED BLOOD CELLS [1]: 0.17 /100WBC | PLATELET COUNT [1]: 989 x10E3/uL | ALANINE AMINOTRANSFERASE [1]: 77 u/L | ALBUMIN [1]: 3.97 G/DL | ALKALINE PHOSPHATASE [1]: 464.83 u/L | ASPARTATE AMINOTRANSFERASE [1]: 89.83 u/L | BLOOD UREA NITROGEN [1]: 12.17 mg/dL | CARBON DIOXIDE [1]: 34.17 mmol/L | CHLORIDE [1]: 98.33 MEQ/L | CHOLESTEROL [1]: 75.17 mg/dL | CREATINE PHOSPHOKINASE [1]: 367.67 u/L | CREATININE [1]: 0.16 mg/dL | GLUCOSE [1]: 142.67 mg/dL | LACTATE DEHYDROGENASE [1]: 139.33 u/L | LIPASE [1]: 9.5 u/L | PHOSPHORUS [1]: 10.85 mg/dL | POTASSIUM [1]: 6.38 MEQ/L | SODIUM [1]: 143.2 MEQ/L | TOTAL BILIRUBIN [1]: 0.2 mg/dL | TOTAL PROTEIN [1]: 5.77 G/DL | URIC ACID [1]: 0.7 mg/dL | ABSOLUTE BASOPHIL [2]: 0 CELLS/uL | ABSOLUTE EOSINOPHIL [2]: 0 CELLS/uL | ABSOLUTE LYMPHOCYTE [2]: 8295.33 CELLS/uL | ABSOLUTE MONOCYTE [2]: 84.67 CELLS/uL | ABSOLUTE SEGMENTED NEUTROPHIL [2]: 970 CELLS/uL | BASOPHIL [2]: 0% | EOSINOPHIL [2]: 0% | ERYTHROCYTE COUNT [2]: 5.74 x10E6/uL | HEMATOCRIT [2]: 36.22% | HEMOGLOBIN [2]: 13.85 G/DL | LEUKOCYTE COUNT [2]: 9.35 x10E3/uL | LYMPHOCYTE [2]: 88.67% | MEAN CORPUSCULAR HEMOGLOBIN [2]: 24.13 pg | MEAN CORPUSCULAR HEMOGLOBIN CONCENTRATION [2]: 38.25 G/DL | MEAN CORPUSCULAR VOLUME [2]: 63.08 fL | MONOCYTE [2]: 1% | NEUTROPHIL [2]: 10.33% | NUCLEATED RED BLOOD CELLS [2]: 0.17 /100WBC | PLATELET COUNT [2]: 883.83 x10E3/uL | ALANINE AMINOTRANSFERASE [2]: 64.5 u/L | ALBUMIN [2]: 4.12 G/DL | ALKALINE PHOSPHATASE [2]: 425.67 u/L | ASPARTATE AMINOTRANSFERASE [2]: 88.5 u/L | BLOOD UREA NITROGEN [2]: 14.17 mg/dL | CARBON DIOXIDE [2]: 30.5 mmol/L | CHLORIDE [2]: 100.33 MEQ/L | CHOLESTEROL [2]: 55.33 mg/dL | CREATINE PHOSPHOKINASE [2]: 287.17 u/L | CREATININE [2]: 0.2 mg/dL | GLUCOSE [2]: 162.83 mg/dL | LACTATE DEHYDROGENASE [2]: 111.33 u/L | LIPASE [2]: 10.5 u/L | PHOSPHORUS [2]: 10.32 mg/dL | POTASSIUM [2]: 5.13 MEQ/L | SODIUM [2]: 143.93 MEQ/L | TOTAL BILIRUBIN [2]: 0.17 mg/dL | TOTAL PROTEIN [2]: 5.9 G/DL | URIC ACID [2]: 0.77 mg/dL | ABSOLUTE BASOPHIL [3]: 0 CELLS/uL | ABSOLUTE EOSINOPHIL [3]: 0 CELLS/uL | ABSOLUTE LYMPHOCYTE [3]: 11414.33 CELLS/uL | ABSOLUTE MONOCYTE [3]: 52 CELLS/uL | ABSOLUTE SEGMENTED NEUTROPHIL [3]: 1133.67 CELLS/uL | BASOPHIL [3]: 0% | EOSINOPHIL [3]: 0% | ERYTHROCYTE COUNT [3]: 5.32 x10E6/uL | HEMATOCRIT [3]: 33.6% | HEMOGLOBIN [3]: 13.17 G/DL | LEUKOCYTE COUNT [3]: 12.6 x10E3/uL | LYMPHOCYTE [3]: 91% | MEAN CORPUSCULAR HEMOGLOBIN [3]: 24.8 pg | MEAN CORPUSCULAR HEMOGLOBIN CONCENTRATION [3]: 39.2 G/DL | MEAN CORPUSCULAR VOLUME [3]: 63.37 fL | MONOCYTE [3]: 0.33% | NEUTROPHIL [3]: 8.67% | NUCLEATED RED BLOOD CELLS [3]: 0 /100WBC | PLATELET COUNT [3]: 1057.33 x10E3/uL | ALANINE AMINOTRANSFERASE [3]: 67.67 u/L | ALBUMIN [3]: 4.03 G/DL | ALKALINE PHOSPHATASE [3]: 399.67 u/L | ASPARTATE AMINOTRANSFERASE [3]: 91 u/L | BLOOD UREA NITROGEN [3]: 10.33 mg/dL | CARBON DIOXIDE [3]: 32.67 mmol/L | CHLORIDE [3]: 99 MEQ/L | CHOLESTEROL [3]: 74 mg/dL | CREATINE PHOSPHOKINASE [3]: 353.33 u/L | CREATININE [3]: 0.24 mg/dL | GLUCOSE [3]: 146 mg/dL | LACTATE DEHYDROGENASE [3]: 177 u/L | LIPASE [3]: 9 u/L | PHOSPHORUS [3]: 11.23 mg/dL | POTASSIUM [3]: 6.24 MEQ/L | SODIUM [3]: 143.6 MEQ/L | TOTAL BILIRUBIN [3]: 0.17 mg/dL | TOTAL PROTEIN [3]: 5.7 G/DL | URIC ACID [3]: 0.6 mg/dL
